# Test results taken from US20250325468A1, “PEPTIDE INHIBITING FORMATION OF SNARE COMPLEX AND USE THEREOF” (MEDYTOX INC., priority 2020, published 2025).
# Where “and” joins values, the source holds several entries; their conditions need not be identical. Identical values can stand only once. Where no end group is shown, it is not given here.
# Legend:
# [1] = Skin irritation test on artificial skin (MTT); assay type: cell-based; details: human, artificial skin (Neoderm-ED, Tegoscience); FIG. 4; 20 μl of 100 μg/ml peptide; 50% or greater = no irritation; read-out: cell viability
# Experimental: (§1) 1×PBS and 5% SDS were evenly applied to artificial skin (Neoderm-ED) purchased from Tegoscience (South Korea) to prepare a negative control and a positive control, respectively. An experimental group was evenly coated with 20 μl of 100 μg/ml C2-P4 peptide. After allowing the samples to react at room temperature for 15 minutes, the resultants were each transferred to the wells of a 12-well culture plate and cultured in an incubator of 37° C. and 5% CO2 for 15 minutes. Once the reaction was completed, the artificial skin was washed twice with PBS and transferred to the wells of a new 12-well culture plate and cultured for 42 hours. Once the culture was completed, 2 ml of 0.3 mg/ml MTT solution was added, and the cells were cultured for 3 hours. The sample in each well of the plate was decolorized by adding 0.04 N HCl-isopropanol, and placed in the Spectra MAX i3, and absorbance of the sample in each well was measured at 580 nm.
# (§2) FIG. 4 is a graph showing the results of measuring effect of C2-P4 on skin irritation. […] Here, when the cell viability of a sample was 50% or greater, the sample was determined to have no irritation.
# [2] = test system: artificial skin (Neoderm-ED); experiment: Skin irritation test on artificial skin (MTT); assay type: cell-based; details: FIG. 4; 20 μl of 100 μg/ml peptide; 50% or greater viability = no irritation
# Experimental: as §1, §2
# B16-F10 cells = experiment: Raw material toxicity test: MTT analysis; assay type: cell-based, mice; details: FIG. 3; 12.5 μM, 25 μM and 50 μM, 48 hours
# Experimental: B16-F10 cells purchased from the Korean Cell Line Bank were inoculated into 100 μL of a DMEM medium containing 10% FBS at a concentration of 1×10^4 cells/well in a 96-well plate and cultured for 48 hours. B16-F10 cells are a murine melanoma cell line derived from mice. These cells are adherent and have an epithelial morphology. Thereafter, the C2-P4 peptide was diluted in a DMEM culture medium at concentrations of 12.5 μM, 25 μM, and 50 μM to replace the medium, and the cells were cultured for 48 hours. After centrifuging the plate at 1,000 rpm for 10 minutes, the culture medium solution was removed. Each well was washed twice with PBS, and a 0.5 mg/ml MTT solution diluted in a DMEM medium was added thereto. The cells were cultured in an incubator of 37° C. and 5% CO2 for 2 hours. After centrifuging the plate at 1,000 rpm for 10 minutes, the MTT solution was removed. Each well was washed twice with PBS, and 150 μL of DMSO was added to dissolve the produced formazan. The plate was placed in a spectrometer (Spectra MAX i3), and absorbance of the sample in each well was measured at 590 nm.
# MITF gene = MITF gene activity by real-time PCR; assay type: cell-based, mice; details: Table 2; three replicates; C2-P4 10 μM, α-MSH 50 nM, 48 hours
# Experimental: B16-F10 cells purchased from the Korean Cell Line Bank were inoculated into 3 mL of a DMEM medium containing 10% FBS at a concentration of 1×10^5 cells/well in a 6-well plate and cultured in an incubator of 37° C. and 5% CO2 for 24 hours to form a cell monolayer. The medium in a negative control was replaced with a DMEM medium, and the medium in peptide-treated experimental groups and α-MSH experimental groups was replaced with a medium containing 10 μM of each of the peptides and 50 nM of α-MSH, respectively, and then the cells were cultured for 48 hours. Each of the experimental groups was washed twice with PBS, the cells were obtained with trypsin-EDTA and centrifuged at 1500 rpm for 5 minutes to separate the cells. RNA was extracted from the separated cells using Trizol, and each 1,000 ng of cDNA was synthesized using reverse transcriptase. Using 100 ng of each of the synthesized cDNAs, the expression levels of GAPDH and […] were confirmed using real-time PCR. The primers used for the real-time PCR were SEQ ID NOs: 9 and 10. Alternatively, the polynucleotide sets of SEQ ID NOs: 11 and 12 were used.
substance,measurement,setting,value
RRWRRWNRFNRRRCRRRLQQTQAQVDEVVDIM [C2-P4],"viability at 0.5 h, 100 µg/mL",[1],~85%
same,skin irritation,[2],no irritation
same,cell viability compared to the negative control (scrambled peptide),B16-F10 cells,similar
same,cytotoxicity (MTT assay),B16-F10 cells,no cytotoxicity
α-MSH,MITF (real-time PCR value),MITF gene,30.05 and 29.98 and 30.17
